From BindingDB's records for doi:10.3109/10799899109064686 (Center For Bio-Pharmaceutical Sciences, 1991)

How the values were obtained:
[1] = target: T1, Cysteinyl leukotriene receptor 1 (Cavia porcellus, UniProt Q2NNR5)
T1 sequence (Q2NNR5 whole entry): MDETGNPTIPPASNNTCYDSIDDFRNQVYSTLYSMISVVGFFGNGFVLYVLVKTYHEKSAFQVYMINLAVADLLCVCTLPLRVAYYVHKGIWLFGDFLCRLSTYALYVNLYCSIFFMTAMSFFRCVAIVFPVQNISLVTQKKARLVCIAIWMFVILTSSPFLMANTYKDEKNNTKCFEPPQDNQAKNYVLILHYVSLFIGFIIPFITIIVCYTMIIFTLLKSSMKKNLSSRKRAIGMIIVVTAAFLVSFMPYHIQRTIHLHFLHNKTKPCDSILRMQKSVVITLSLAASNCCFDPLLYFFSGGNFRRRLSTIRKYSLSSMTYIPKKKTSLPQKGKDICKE

Adenosine receptor A1 = target: T2, Adenosine receptor A1 (Rattus norvegicus, UniProt P25099)
T2 sequence (P25099 whole entry): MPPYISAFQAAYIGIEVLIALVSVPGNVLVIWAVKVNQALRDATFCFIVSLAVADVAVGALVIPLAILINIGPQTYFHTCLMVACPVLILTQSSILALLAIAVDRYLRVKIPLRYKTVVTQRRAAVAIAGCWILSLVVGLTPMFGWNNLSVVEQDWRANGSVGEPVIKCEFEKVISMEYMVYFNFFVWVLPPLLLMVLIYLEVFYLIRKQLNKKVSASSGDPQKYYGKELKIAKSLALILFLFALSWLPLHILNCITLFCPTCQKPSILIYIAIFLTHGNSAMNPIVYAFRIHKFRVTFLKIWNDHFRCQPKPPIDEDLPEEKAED

[2] = target: T3, 5-hydroxytryptamine receptor 3A (Mus musculus, UniProt P23979)
T3 sequence (P23979 whole entry): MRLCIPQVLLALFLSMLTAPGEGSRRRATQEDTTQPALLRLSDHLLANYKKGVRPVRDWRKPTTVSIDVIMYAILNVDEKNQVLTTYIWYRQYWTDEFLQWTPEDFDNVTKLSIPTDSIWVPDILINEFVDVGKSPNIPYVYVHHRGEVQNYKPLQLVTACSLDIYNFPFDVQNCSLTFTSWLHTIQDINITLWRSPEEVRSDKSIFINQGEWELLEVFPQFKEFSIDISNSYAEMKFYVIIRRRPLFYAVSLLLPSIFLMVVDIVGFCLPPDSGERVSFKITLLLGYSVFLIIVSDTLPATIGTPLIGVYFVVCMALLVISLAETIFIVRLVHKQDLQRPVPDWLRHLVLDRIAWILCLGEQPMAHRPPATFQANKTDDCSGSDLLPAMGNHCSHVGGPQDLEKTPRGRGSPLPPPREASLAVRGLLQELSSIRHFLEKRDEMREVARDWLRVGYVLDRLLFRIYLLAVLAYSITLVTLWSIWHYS

[3] = target: T4, Muscarinic acetylcholine receptor M2 (Rattus norvegicus, UniProt P10980)
T4 sequence (P10980 whole entry): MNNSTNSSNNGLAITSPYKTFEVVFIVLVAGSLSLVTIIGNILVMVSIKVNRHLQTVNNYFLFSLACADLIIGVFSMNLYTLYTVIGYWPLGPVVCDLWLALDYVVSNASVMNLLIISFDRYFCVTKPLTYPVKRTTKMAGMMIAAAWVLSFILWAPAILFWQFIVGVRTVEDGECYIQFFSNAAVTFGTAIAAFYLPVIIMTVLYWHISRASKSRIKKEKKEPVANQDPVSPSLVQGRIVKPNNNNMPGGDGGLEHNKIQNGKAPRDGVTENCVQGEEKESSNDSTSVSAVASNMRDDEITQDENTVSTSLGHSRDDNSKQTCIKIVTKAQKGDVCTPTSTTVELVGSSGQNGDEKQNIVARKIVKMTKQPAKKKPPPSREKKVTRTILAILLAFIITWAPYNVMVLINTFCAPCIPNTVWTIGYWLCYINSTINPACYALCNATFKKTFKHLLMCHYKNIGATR

[4] = target: T5, 5-hydroxytryptamine receptor 2C (Sus scrofa, UniProt G7ZKZ7)
T5 sequence (G7ZKZ7 whole entry): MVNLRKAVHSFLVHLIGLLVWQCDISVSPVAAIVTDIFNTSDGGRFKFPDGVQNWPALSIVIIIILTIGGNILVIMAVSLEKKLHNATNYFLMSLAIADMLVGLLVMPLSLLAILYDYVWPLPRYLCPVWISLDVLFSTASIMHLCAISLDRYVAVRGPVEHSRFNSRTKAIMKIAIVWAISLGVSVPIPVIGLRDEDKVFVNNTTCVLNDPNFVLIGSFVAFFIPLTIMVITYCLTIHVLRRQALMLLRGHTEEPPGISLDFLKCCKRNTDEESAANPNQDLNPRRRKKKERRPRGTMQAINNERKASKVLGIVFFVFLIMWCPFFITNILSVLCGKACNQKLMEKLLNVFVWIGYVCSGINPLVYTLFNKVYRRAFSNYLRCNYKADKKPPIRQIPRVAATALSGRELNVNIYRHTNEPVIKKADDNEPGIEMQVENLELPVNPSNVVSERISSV

[5] = target: T6, Alpha-1A adrenergic receptor (Rattus norvegicus, UniProt P43140)
T6 sequence (P43140 whole entry): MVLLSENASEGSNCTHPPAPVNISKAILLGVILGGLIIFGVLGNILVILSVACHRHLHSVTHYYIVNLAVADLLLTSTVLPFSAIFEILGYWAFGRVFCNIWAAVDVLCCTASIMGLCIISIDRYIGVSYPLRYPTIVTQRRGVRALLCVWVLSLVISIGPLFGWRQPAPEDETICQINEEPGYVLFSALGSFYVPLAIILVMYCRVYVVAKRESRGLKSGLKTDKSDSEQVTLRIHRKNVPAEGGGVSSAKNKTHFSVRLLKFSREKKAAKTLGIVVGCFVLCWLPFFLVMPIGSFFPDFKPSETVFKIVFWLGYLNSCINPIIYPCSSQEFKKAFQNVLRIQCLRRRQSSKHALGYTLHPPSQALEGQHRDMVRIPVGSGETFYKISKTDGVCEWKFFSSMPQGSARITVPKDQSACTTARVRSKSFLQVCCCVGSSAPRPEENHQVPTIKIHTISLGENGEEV

Ki [1] [µM] | Ki (Adenosine receptor A1) [µM] | Ki [2] [µM] | Ki [3] [µM] | Ki [4] [µM] | Ki [5] [µM] | Compound
> 10 | 1.2 | > 10 | 2.9 | 6.7 | > 10 | N=C(N)NC(=O)c1nc(Cl)c(N2CCCCCC2)nc1N
> 10 | 0.98 | 2.2 | 5.8 | > 10 | 2 | NC(=NCc1ccccc1)NC(=O)c1nc(Cl)c(N)nc1N [NSC_108107]

Compound | Ki [1] [µM] | Ki (Adenosine receptor A1) [µM] | Ki [2] [µM] | Ki [3] [µM] | Ki [4] [µM] | Ki [5] [µM]
N=C(N)NC(=O)c1nc(Cl)c(N)nc1N [3,5-diamino-N-carbamimidoyl-6-chloropyrazine-2-carboxamide] | > 10 | 11 | > 10 | > 10 | > 10 | > 10
